Data as given in patent US20120244208A1, “COSMETIC SKIN CARE METHODS AND COMPOSITIONS” (priority 2009, published 2012).

What was measured:
[1] = system: Normal human dermal fibroblasts (NHDFs) seeded on collagen type 1 gels; test: Fibroblast-seeded collagen gel contraction; type: cell-based; settings: for % of original size (mean): 0.1 mg/ml lactoferrin, 0.1 mg/ml ICI 118 551, 1.0 mg/ml Isoproterenol, 3.5×10^4 cells per well
Experimental: Normal human dermal fibroblasts (NHDFs) were obtained by tissue donation following circumcision following patient informed consent. The tissue was rinsed in Phosphate Buffered Saline (PBS) and Pen/Strep and Amphotericin B (Pen/strep) at 10 ug/ml. The tissue was then minced to 1 mm2 sections and suspended in Trypsin-EDTA 1:250 at room temperature (RT) for 1 hr. The tissue was then washed twice by centrifugation at 2500 g for 3min in serum supplemented DMEM/F12. A single cell suspension was created using mechanical disaggregation. The cells were counted using a haemocytometer and cultured at 1×10^6 cells per T75 tissue culture flask in DMEM/F12 containing 10% Fetal Bovine Serum (FBS) and 10 ug/ml Pen/strep. Incubators were kept at 37° C. and 5% CO2. Medium was changed every 3-4 days and cells were used from the 4th passage in vitro.
Collagen gels were formed. A solution of collagen, consisting of 2 mg/ml type 1 bovine collagen from bovine Achilles tendon in 0.5M acetic acid, was made. This made up 80% of the gel. Another 10% was made up of 10×PBS and the remaining volume was made up of FBS. The pH of the entire solution was adjusted to 7.4 using NaOH. 400 μl of the solution was placed into each well of a 24 well plate. The gels were set at 37° C. for 1 hr. After ensuring that the gels were set properly, they were detached from the sides of the wells and exposed to 1 ml fully supplemented DMEM/F12 overnight to acclimatize. The complete gels were seeded with 3.5×10^4 cells per well and the test compounds were added at this point. The test compound were added as follows: 0.1 mg/ml lactoferrin, 0.1 mg/ml ICI 118 551, 1.0 mg/ml Isoproterenol. A cell only and no cell control were also incuded.
Photographs were taken from the same distance at 0, 3, 6, 12 and 24 hrs of exposure using a Canon Powershot A640 10MP camera. The photos were transferred to CorelDRAW X3 and the inside diameter of the well as well as the outer edge of the gel were measured using the circle tool. […] These two diameters were then converted to a percentage of the well diameter by the formula geloutside/wellinside×100=gelrelative. This value was then worked out the same way for each gel at every time period. The time period Ohrs taken to be 100% of gel size and each time period after that was compared to it as a relative percentage. The standard deviation was calculated based on the original relative percentage to the well.

[2] = system: Normal human dermal fibroblasts (NHDFs) seeded on collagen type 1 gels; test: Fibroblast-seeded collagen gel contraction; type: cell-based
NHDFs = test: Viability monitored visually for 6 days; type: cell-based, human
Experimental: Cytotoxicity was measured using the MTT assay on NHDFs. Human dermal cells were used as it approximates the intended use. No cytotoxicity was found. […] All other cells maintained their viability over the six day period.

fibroblasts = settings: concentration of 1 microM; cited from earlier work
[3] = 0 hrs (taken to be 100% of gel size)

Molecule | % of original size (mean) [1, 3] | % of original size (mean) ([1]; 3 hrs) | % of original size (mean) ([1]; 6 hrs) | % of original size (mean) ([1]; 12 hrs) | % of original size (mean) ([1]; 24 hrs) | rate of gel contraction compared with Lactoferrin and cells only controls ([1]; over 24 hrs) | ideal concentration for gel contraction ([2]; dose response 0.01 mg/ml to 0.2 mg/ml, gel containing 3.5×10^4 cells) | activity at lower concentrations (gel contraction) ([2]; dose response from 0.01 mg/ml, concentrations lower than 0.1 mg/ml) | effect of higher concentrations on rate of contraction ([2]; dose response up to 0.2 mg/ml, concentrations higher than 0.1 mg/ml) | return of gels to original dimensions ([2]; monitored for a further 3 days) | viability monitored visually (NHDFs) | collagen gel contraction by fibroblasts relative to control (fibroblasts)
Cc1ccc(OCC(O)C(C)NC(C)C)c2c1CCC2 (racemic) [ICI 118 551, erythro-dl-1-(7-methylindan-4-yloxy)-3-isopropylaminobutan-2-ol] | 100% | 66.04% | 53.8% | 51.33% | 51.86% | contract the gels at a higher rate | 0.1 mg/mL | not be significantly active | did not seem to increase the rate of contraction significantly | did not return to their original dimensions |  | 
CC(C)NCC(O)c1ccc(O)c(O)c1 (centres unmarked) [Isoproterenol] | 100% | 100.8622% | 79.6766% | 82.7588% | 83.79% |  |  |  |  |  | started to lose viability | 
YTRVVWXA: peptide with the amino acid sequence YTRVVWXA (a fragment from Lactoferrin) |  |  |  |  |  |  |  |  |  |  |  | about three times control
